According to patent US5861395A, “Compounds useful for inhibition of farnesyl proteins transferase” (Schering Corporation, priority 1997, dated 1999):

How the values were obtained:
[1] = system: Human tumor cells; test: Soft Agar Assay (anchorage-independent growth); type: cell-based; conditions: Table 4, colonies after 10-16 days at 37° C.
Experimental: Soft Agar Assay: Anchorage-independent growth is a characteristic of tumorigenic cell lines. Human tumor cells are suspended in growth medium containing 0.3% agarose and an indicated concentration of a farnesyl transferase inhibitor. The solution is overlayed onto growth medium solidified with 0.6% agarose containing the same concentration of farnesyl transferase inhibitor as the top layer. After the top layer is solidified, plates are incubated for 10-16 days at 37° C. under 5% CO2 to allow colony outgrowth. […] Colonies can be counted and the IC50 's can be determined.

[2] = system: COS Cell; test: COS Cell IC50 (Cell-Based Assay)
Experimental: FPT IC50 (inhibition of farnesyl protein transferase, in vitro enzyme assay), GGPT IC50 (inhibition of geranylgeranyl protein transferase, in vitro enzyme assay) and COS Cell IC50 (Cell-Based Assay) were determined following the assay procedures described in WO 95/10516, published Apr. 20, 1995. Cell Mat Assay, and anti-tumor activity (in vivo anti-tumor studies) could be determined by the assay procedures described in WO 95/10516. The disclosure of WO 95/10516 is incorporated herein by reference thereto.

[3] = target: farnesyl protein transferase; test: FPT IC50 (inhibition of farnesyl protein transferase, in vitro enzyme assay); type: biochemical
Description: In Table 2 "Ex. No." stands for "Example Number". In Table 2, FPT IC50 results are less indicated otherwise.

Row | SMILES | IC50 ([1]; Homo sapiens) | IC50 ([2]; Table 4) | IC50 ([3]; Table 3) | IC50 ([3]; Table 2) | further results
1 | O=C1NC[C@@H](C(=O)N2CCC(CC(=O)N3CCC([C@H]4c5ncc(Br)cc5CCc5cc(Cl)cc(Br)c54)CC3)CC2)N1 [Compound 15.0-B] | 280 nM | 33 nM | 2 nM |  | IC50 [1]: 370 nM
2 | O=C(O)c1cncc(C(=O)N2CCC(CC(=O)N3CCC([C@H]4c5ncc(Br)cc5CCc5cc(Cl)cc(Br)c54)CC3)CC2)c1 [Compound 25.0-B] | > 500 nM | > 1000 nM | 0.8 nM |  | 
3 | Cc1noc(C)c1C(=O)N1CCC(CC(=O)N2CCC([C@H]3c4ncc(Br)cc4CCc4cc(Cl)cc(Br)c43)CC2)CC1 [Compound 27.0-B] | 370 nM | 10 nM | 4 nM |  | 
4 | O=C1N[C@H](C(=O)N2CCC(CC(=O)N3CCC([C@H]4c5ncc(Br)cc5CCc5cc(Cl)cc(Br)c54)CC3)CC2)CO1 [Compound 28.0-B] | 120 nM | 7 nM | 2.3 nM |  | 
5 | NC(=O)c1cncc(C(=O)N2CCC(CC(=O)N3CCC([C@H]4c5ncc(Br)cc5CCc5cc(Cl)cc(Br)c54)CC3)CC2)c1 [Compound 29.0-B] | 500 nM | 21 nM | 2.2 nM |  | 
6 | O=C(CC1CCN(C(=O)c2cn[nH]c2)CC1)N1CCC([C@H]2c3ncc(Br)cc3CCc3cc(Cl)cc(Br)c32)CC1 [Compound 31.0-B] | 150 nM | 7 nM | 3 nM |  | 
7 | CC(=O)N1CCC(CC(=O)N2CCC([C@H]3c4ncc(Br)cc4CCc4cc(Cl)cc(Br)c43)CC2)CC1 [Compound 36.0-B] | 180 nM | 50 nM | 2.6 nM |  | IC50 [1]: 170 nM
8 | O=C(CC1CCN(C(=O)c2cccn2Cc2ccccc2)CC1)N1CCC([C@H]2c3ncc(Br)cc3CCc3cc(Cl)cc(Br)c32)CC1 [Compound 41.0-B] | > 500 nM | 30 nM | 1.7 nM |  | 
9 | NC(=O)Cn1cccc1C(=O)N1CCC(CC(=O)N2CCC([C@H]3c4ncc(Br)cc4CCc4cc(Cl)cc(Br)c43)CC2)CC1 [Compound 42.0-B] | 310 nM | 27 nM | 3.2 nM |  | 
10 | CS(=O)(=O)n1cccc1C(=O)N1CCC(CC(=O)N2CCC([C@H]3c4ncc(Br)cc4CCc4cc(Cl)cc(Br)c43)CC2)CC1 [Compound 43.0-B] | 200 nM | < 10 nM | 3.8 nM |  | 
11 | O=C(CC1CCN(C(=O)c2ccc[n+]([O-])c2)CC1)N1CCC([C@H]2c3ncc(Br)cc3CCc3cc(Cl)cc(Br)c32)CC1 [Compound 46.0-B] | 165 nM | 7 nM | 1.9 nM |  | 
12 | O=C(CC1CCN(C(=O)c2ccc(O)nc2)CC1)N1CCC([C@H]2c3ncc(Br)cc3CCc3cc(Cl)cc(Br)c32)CC1 [Compound 47.0-B] | 450 nM | 35 nM | 2.9 nM |  | 
13 | O=C(CC1CCN(C(=O)c2cccnc2O)CC1)N1CCC([C@H]2c3ncc(Br)cc3CCc3cc(Cl)cc(Br)c32)CC1 [Compound 48.0-B] | > 500 nM | 47 nM | 2.1 nM |  | 
14 | CC(C)(C)OC(=O)Cn1cccc1C(=O)N1CCC(CC(=O)N2CCC([C@H]3c4ncc(Br)cc4CCc4cc(Cl)cc(Br)c43)CC2)CC1 [Compound 61.0-B] |  |  | 11 nM |  | 
15 | O=C(O)Cn1cccc1C(=O)N1CCC(CC(=O)N2CCC([C@H]3c4ncc(Br)cc4CCc4cc(Cl)cc(Br)c43)CC2)CC1 [Compound 62.0-B] | > 500 nM | 700 nM | 2.8 nM |  | 
16 | CC(=O)O[C@H]1CC[C@@H](C(=O)N2CCC(CC(=O)N3CCC([C@H]4c5ncc(Br)cc5CCc5cc(Cl)cc(Br)c54)CC3)CC2)CC1 [Compound 66.0-B] | 440 nM | 10 nM | 7.3 nM |  | 
17 | O=C(CC1CCN(C(=O)[C@H]2CC[C@@H](O)CC2)CC1)N1CCC([C@H]2c3ncc(Br)cc3CCc3cc(Cl)cc(Br)c32)CC1 [Compound 73.0-B] | 360 nM | 24 nM | 4.5 nM |  | 
18 | O=C1C[C@@H](C(=O)N2CCC(CC(=O)N3CCC([C@H]4c5ncc(Br)cc5CCc5cc(Cl)cc(Br)c54)CC3)CC2)NC(=O)N1 [Compound 78.0-B] | 170 nM | 30 nM | 2.6 nM |  | 
19 | O=C(CC1CCN(C(=O)[C@@H]2CSCN2)CC1)N1CCC([C@H]2c3ncc(Br)cc3CCc3cc(Cl)cc(Br)c32)CC1 [Compound 80.0-B] | > 500 nM |  | 2.6 nM |  | 
20 | N#CN=C(Oc1ccccc1)N1CCC(CC(=O)N2CCN(C3c4ccc(Cl)cc4CCc4cc(Br)cnc43)CC2)CC1 (centres unmarked) [Example 1, PHENYL 4-[2-[4-(3-BROMO-8-CHLORO-6,11-DIHYDRO-5H-BENZO[5,6]CYCLOHEPTA[1,2-b]PYRIDIN-11-YL]-1-PIPERAZINYL]-2-OXOETHYL]-N-CYANO-1-PIPERIDINE-CARBOXIMIDATE] |  |  |  |  | FPT inhibition (column FPT IC50) ([3]; @ 0.3 μM, Table 2): 44%
21 | N#CNC(=N)N1CCC(CC(=O)N2CCN(C3c4ccc(Cl)cc4CCc4cc(Br)cnc43)CC2)CC1 (centres unmarked) [Example 2, 4-[2-[4-(3-BROMO-8-CHLORO-6,11-DIHYDRO-5 H-BENZO[5,6]CYCLOHEPTA[1,2-b]PYRIDIN-11-YL)-1-PIPERAZINYL]-2-OXOETHYL]-N-CYANO-1-PIPERIDINE-CARBOXIMIDAMIDE] |  |  |  | 100 nM | 
22 | N#CN1CCC(CC(=O)N2CCN(C3c4ccc(Cl)cc4CCc4cc(Br)cnc43)CC2)CC1 (centres unmarked) [Example 4] |  |  |  | 54.3 nM | 
23 | N=C(NS(N)(=O)=O)N1CCC(CC(=O)N2CCN(C3c4ccc(Cl)cc4CCc4cc(Br)cnc43)CC2)CC1 (centres unmarked) [Example 6, 4-[2-[4-(3-BROMO-8-CHLORO-6,11-DIHYDRO-5H-BENZO[5,6]CYCLOHEPTA[1,2-b]PYRIDIN-11-YL)-1-PIPERAZINYL]2-OXOETHYL]-N-SULFAMOYL-1-PIPERIDINE-CARBOXIMIDAMIDE] |  |  |  | 120 nM | 
24 | NC(=NO)N1CCC(CC(=O)N2CCN(C3c4ccc(Cl)cc4CCc4cc(Br)cnc43)CC2)CC1 (centres unmarked) [Example 11, 4-[2-[4-(3-BROMO-8-CHLORO-6,11-DIHYDRO-5 H-BENZO[5,6CYCLOHEPTA[1,2-b]PYRIDIN-11-YL-1-PIPERAZINYL]-2-OXOETHYL]-N-HYDROXY-1-PIPERIDINE-CARBOXIMIDATE] |  |  |  | 58 nM | 
25 | NC(=O)NC(=O)N=C(Oc1ccccc1)N1CCC(CC(=O)N2CCN(C3c4ccc(Cl)cc4CCc4cc(Br)cnc43)CC2)CC1 (centres unmarked) [Example 13, PHENYL N- [[(AMINOCARBONYL)AMINO]CARBONYL]4-[2-[4-(3-BROMO-8-CHLORO-6,11-DIHYDRO-5 H-BENZO[5,6CYCLOHEPTA-[1,2-b]PYRIDIN-11-YL)-1-PIPERAZINYL]-2-OXOETHYL]-1-PIPERIDINECARBOXIMIDATE] |  |  |  | 140 nM | 
26 | N=C(NC(=O)NC(N)=O)N1CCC(CC(=O)N2CCN(C3c4ccc(Cl)cc4CCc4cc(Br)cnc43)CC2)CC1 (centres unmarked) [Example 14, N-[[(AMINOCARBONYL)AMINO]CARBONYL]-4-[2-[4-(3-BROMO-8-CHLORO-6,11-DIHYDRO-5H-BENZO[5,6]CYCLOHEPTA[1,2-b]-PYRIDIN-11-YL)-1-PIPERAZINYL]2-OXOETHYL]-1-PIPERIDINECARBOXIMIDAMIDE] |  |  |  | 78 nM | 
27 | N#CN1CCC(CC(=O)N2CCC([C@H]3c4ncc(Br)cc4CCc4cc(Cl)cc(Br)c43)CC2)CC1 [Example 26] |  |  |  | 2.3 nM | IC50 ([2]; Table 2): 12 nM
28 | N=C(Oc1ccccc1)N1CCC(CC(=O)N2CCC(C3c4ccc(Cl)c(Br)c4CCc4cc(Br)cnc43)CC2)CC1 (centres unmarked) [Example 27] |  |  |  | 39 nM | 
29 | N=C(N)N1CCC(CC(=O)N2CCC(C3c4ccc(Cl)c(Br)c4CCc4cc(Br)cnc43)CC2)CC1 (centres unmarked) [Example 28] |  |  |  | 23 nM | inhibition at 1 µM ([2]; @ 1 μM, Table 2): 0%
